According to US20100087413A1, “Prevention and treatment of inflammation-induced and/or immune-mediated bone loss” (priority 2003, published 2010):
Where two headings read alike, the source gives them in different places. Marks after values point to notes of the source that are not given here.

What was measured:
human 11β-HSD2 = target: T1, human 11β-HSD2 (Homo sapiens, UniProt P80365); test: 11β-HSD2 oxidase activity (conversion of radiolabelled cortisol to cortisone) in lysates of stably transfected HEK-293 cells; assay type: biochemical; settings: for 11β-HSD2 % of control: 20 μM compound, 25 nM cortisol substrate, HEK-293 lysate
T1 construct: expressed in transfected cells; host or cells: HEK-293 cells, stably transfected; cell lysate
T1 sequence (P80365 1-405): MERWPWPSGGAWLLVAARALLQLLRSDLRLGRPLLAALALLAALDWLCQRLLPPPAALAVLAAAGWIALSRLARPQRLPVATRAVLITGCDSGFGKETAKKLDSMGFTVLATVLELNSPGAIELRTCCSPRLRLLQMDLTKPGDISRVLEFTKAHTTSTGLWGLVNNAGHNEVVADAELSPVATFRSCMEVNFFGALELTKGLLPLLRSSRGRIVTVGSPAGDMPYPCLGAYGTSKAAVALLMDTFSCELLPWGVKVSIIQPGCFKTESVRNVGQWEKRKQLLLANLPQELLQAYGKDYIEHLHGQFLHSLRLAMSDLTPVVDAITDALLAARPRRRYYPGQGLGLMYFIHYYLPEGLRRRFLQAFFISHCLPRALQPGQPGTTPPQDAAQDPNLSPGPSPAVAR
Protocol: (§1) Cells were grown in 10 cm dishes to 80% confluence and incubated for 16 h in steroid-free medium (charcoal-treated fetal calf serum (FCS) from HyClone, Logan, Utah). Cells were rinsed once with phosphate-buffered saline (PBS), detached and centrifuged for 3 min at 150×g. The supernatant was removed and the cell pellet quick-frozen in a dry-ice ethanol bath. At the day of experiment, cell pellets were resuspended in buffer TS2 (100 mM NaCl, 1 mM EGTA, 1 mM EDTA, 1 mM MgCl2, 250 mM sucrose, 20 mM Tris-HCl, pH 7.4), sonicated and activities determined immediately. The rate of conversion of cortisol to cortisone or the reverse reaction was determined in 96-well optical PCR reaction plates (Applied Biosystems, Foster City, Calif.) in a final volume of 22 μl, and the tubes were capped during the reaction to avoid evaporation.
Reactions were initiated by simultaneously adding 10 μl of cell lysate and 12 μl of TS2 buffer containing the appropriate concentration of the inhibitory compound to be tested, NAD^+, 30 nCi of [1,2,6,7-^3H]-cortisol and unlabeled cortisol. […] Stock solutions of the inhibitors in methanol or DMSO were diluted in TS2 buffer to yield the appropriate concentrations, whereby the concentration of methanol or DMSO in the reactions were kept below 0.1%. Control reactions with or without 0.1% of the solvent were performed. Incubation was at 37° C. for 10 min with shaking, reactions were terminated by adding 10 μl of stop solution containing 2 mM of unlabeled cortisol and cortisone dissolved in methanol. The conversion of radiolabeled cortisol was determined by separation of cortisol and cortisone using TLC and a solvent system of 9:1 (v/v) chloroform:methanol, followed by scintillation counting.
(§2) Enzyme kinetics were analyzed by non-linear regression using Data Analysis Toolbox (MDL Information Systems Inc.) assuming first-order rate kinetics.
(§3) Assay with 20 μM of the corresponding compound in the reaction mixture, added simultaneously with the substrate:
(§4) Determination of IC50 values, using 7 different inhibitor concentrations at factor 2 intervals: […]

human 11β-HSD1 = target: T2, human 11β-HSD1 (Homo sapiens, UniProt P28845); test: 11β-HSD1 reductase activity (conversion of radiolabelled cortisone to cortisol) in lysates of stably transfected HEK-293 cells; assay type: biochemical; settings: for 11β-HSD1 % of control: 20 μM compound, 100 nM cortisone substrate, HEK-293 lysate
T2 construct: expressed in transfected cells; host or cells: HEK-293 cells, stably transfected; cell lysate
T2 sequence (P28845 whole entry): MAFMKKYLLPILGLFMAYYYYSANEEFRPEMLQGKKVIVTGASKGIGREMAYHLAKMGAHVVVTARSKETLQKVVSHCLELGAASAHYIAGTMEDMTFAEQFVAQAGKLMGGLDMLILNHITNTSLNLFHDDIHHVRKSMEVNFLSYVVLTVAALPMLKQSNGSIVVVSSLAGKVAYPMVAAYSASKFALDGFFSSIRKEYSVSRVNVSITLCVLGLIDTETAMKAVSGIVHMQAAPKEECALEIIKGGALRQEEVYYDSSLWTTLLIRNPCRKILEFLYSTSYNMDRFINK
Protocol: as §1
Reactions were initiated simultaneously by adding 10 μl of cell lysate and 12 μl of TS2 buffer containing the appropriate concentration of the inhibitory compound to be tested, NADPH, 30 nCi of [1,2,6,7-^3H]-cortisone and unlabeled cortisone, whereby final concentrations were 400 μM NADPH and 100 nM cortisone. Activities were determined immediately after cell disruption by measuring the conversion of radiolabeled cortisone to cortisol for 10 min.
as §2, §3, §4

[1] = system: Adjuvant-Induced Arthritis (AIA); test: Adjuvant-induced arthritis (AIA), histology of hind joint sections from arthritic rats; assay type: in vivo; settings: rat AIA, injected i.d. early (day0, day2, day4) or late (day9, day11, day13)
Text: An intradermal injection, at the base of the tail, with heat killed Mycobaterium tuberculosum in incomplete Feund's Adjuvans results in destructive arthritis within 14 days in susceptible DA or LEW inbred rat strains. AIA can also be induced with cell walls from other bacterial types in IFA, although the arthritogenicity varies. Increased synthesis of tumor necrosis factor a (TNF-a), interleukin 1 (IL-1) and IL-6 is detected as early as day four after adjuvant injection. The disease progresses rapidly over several weeks in what appears clinically to be a monophasic process.
BX-1 early: BX-1 injected i.d. at the time of disease induction (day0) and day2, day4 BX-1 late: BX-1 injected i.d. at first signs of arthritis, day9, day11, day13.
Samples are from both left and right hind limb of three rats per group of a representative experiment
Rat ankle slides were histologically evaluated according to five criteria (blind evaluation by DL Boyle et al., University of California in San Diego, (J. Immunol., January 2002; 168: 51-56.): • 1. Extra-articular inflammation • 2. Bone marrow inflammation (BM) • 3. Synovial inflammation • 4. Cartilage/bone erosion • 5. Proteoglycan damage

[2] = 7 inhibitor concentrations at factor 2 intervals
[3] = Mittelwert (mean) of determinations 1-3, read-out: IC 50 11β-HSD1, Mittelwert
[4] = Mittelwert (mean) of the determinations, read-out: IC 50 11β-HSD2, Mittelwert

| SMILES | 11β-HSD2 % of control (human 11β-HSD2) | 11β-HSD1 % of control (human 11β-HSD1) | also measured |
| --- | --- | --- | --- |
| CCN(CC(O)COc1cc(C)c(Cl)c(C)c1)S(=O)(=O)O (centres unmarked) [BNW1] | 96.77 % of control | 102.1 % of control | – |
| COc1ccc(OC)c(C2C(C(=O)c3ccc(Br)cc3)=C(O)C(=O)N2CCCn2ccnc2)c1 (centres unmarked) [BNW2] | 77.95 % of control | 78.84 % of control | – |
| CCCCOc1ccc(C(=O)C2=C(O)C(=O)N(CCOC)C2c2cccnc2)c(C)c1 (centres unmarked) [BNW3] | 53.57 % of control | 60.25 % of control | – |
| Cc1nn(CC(=O)Nc2sc(C)c(C)c2C(N)=O)c(C)c1[N+](=O)[O-] [BNW4] | 95.05 % of control | 82.24 % of control | – |
| Cc1n[nH]c(O)c1C(c1ccc(-c2ccc(Cl)c(C(=O)O)c2)o1)c1c(O)n[nH]c1C [BNW5] | 97.47 % of control | 69.75 % of control | – |
| COc1ccc(C(=O)CNc2cccc(Cl)c2Cl)c(C(F)(F)F)c1 [BNW6] | 145 % of control | 79.64 % of control | – |
| COc1ccc(CCNC(=O)C23CCC(C)(C(=O)C2=O)C3(C)C)cc1OC (centres unmarked) [BNW7] | 139.5 % of control | 9.593* % of control | IC 50 11β-HSD2, determination 1 (human 11β-HSD2; [2]): did not inhibit; IC 50 11β-HSD2, determination 2 (human 11β-HSD2; determination 2, 7 inhibitor concentrations at factor 2 intervals): did not inhibit; IC 50 11β-HSD2, determination 3 (human 11β-HSD2; determination 3, 7 inhibitor concentrations at factor 2 intervals): did not inhibit; IC50 (human 11β-HSD1; [3]): 2030 nM |
| NC(=O)c1c(NC(=O)C2CC=CCC2C(=O)O)sc2c1CCCCC2 (centres unmarked) [BNW8] | 102.7 % of control | 41.71 % of control | – |
| COCCC1C(=O)C(O)=C(C(=O)c2ccc(OC)c(C)c2)C1c1ccc(Cl)cc1Cl (centres unmarked) [BNW9] | 77.43 % of control | 30.65 % of control | – |
| Cc1cccc(C)c1C1C(SCC(=O)Nc2c(Cl)cccc2Cl)=NN=C1c1cccc([S+]([O-])N(C)C)c1 (centres unmarked) [BNW11] | 120.9 % of control | 70.1 % of control | – |
| CCN(CC)S(=O)(=O)c1ccc(Cl)c(C(=O)Nc2nc3ccc(S(C)(=O)=O)cc3s2)c1 [BNW12] | 132.1 % of control | 85.36 % of control | – |
| COC(=O)[C@@]1(C)CC[C@]2(C)CC[C@]3(C)C(=CC(=O)[C@@H]4[C@@]5(C)CC[C@H](Oc6ccccc6C(=O)O)C(C)(C)[C@@H]5CC[C@]43C)[C@@H]2C1 [BNW13] | 14.37* % of control | 3.879* % of control | IC50 (human 11β-HSD2; [4]): 281 nM; IC 50 11β-HSD2, determination 1 (human 11β-HSD2; [2]): out of range; IC50 (human 11β-HSD1; [3]): 691 nM |
| CC1(C)[C@@H](OCO)CC[C@]2(C)[C@H]3C(=O)C=C4C5=C[C@@](C)(C(=O)O)CC[C@]5(C)CC[C@@]4(C)[C@]3(C)CC[C@@H]12 [BNW15] | 56.95 % of control | 50.37 % of control | – |
| CC(=O)OC1CC[C@]2(C)C3=C(C(=O)C[C@H]2C1(C)C)[C@]1(C)CCC(C(C)CCC(=O)O)[C@@]1(C)CC3=O (some centres unmarked) [BNW16] | 27.37 % of control | 2.708* % of control | IC50 (human 11β-HSD2; [4]): 3950 nM; IC 50 11β-HSD2, determination 1 (human 11β-HSD2; [2]): out of range; IC50 (human 11β-HSD1; [3]): 144 nM |
| CCOc1ccc(C2c3cc(OCC)c(OCC)cc3CC(=O)N2c2ccc(C(=O)O)cc2)cc1OCC (centres unmarked) [BNW17] | 120.1 % of control | 88.22 % of control | – |
| CSc1nc2cc(C)c(C)cc2n1C1OC(CO)C(O)C1O (centres unmarked) [BNW18] | 82.81 % of control | 92.03 % of control | – |
| COCCN1C(=O)C(O)=C(C(=O)c2ccc(OC)c(C)c2)C1c1ccc(C)cc1 (centres unmarked) [BNW20] | 120.7 % of control | 46.83 % of control | – |
| COc1ccc(C(=O)C2=C(O)C(=O)N(CCCn3ccnc3)C2c2ccccc2)cc1Cl (centres unmarked) [BNW21] | 121.6 % of control | 48.94 % of control | – |
| CCOc1ccc(C2C(C(=O)c3ccc(Cl)cc3)=C(O)C(=O)N2CCCn2ccnc2)cc1OCC (centres unmarked) [BNW22] | 104.3 % of control | 41.32 % of control | – |
| COc1cccc(/C=N/NC(=O)CSCc2ccccc2C)c1OC [BNW23] | 132.6608 % of control | 85.07 % of control | – |
| C[C@H]1CC[C@]2(C)[C@H]3C(=O)C=C4[C@@H]5C[C@@](C)(C(=O)O)CC[C@]5(C)CC[C@@]4(C)[C@]3(C)CC[C@H]2C1(C)C [BNW25] | 13.93* % of control | 2.884* % of control | IC50 (human 11β-HSD2; [4]): 59.7 nM; IC 50 11β-HSD2, determination 1 (human 11β-HSD2; [2]): out of range; IC50 (human 11β-HSD2; determination 2, 7 inhibitor concentrations at factor 2 intervals, read-out: IC 50 11β-HSD2, determination 2): 54.6 nM; IC50 (human 11β-HSD2; determination 3, 7 inhibitor concentrations at factor 2 intervals, read-out: IC 50 11β-HSD2, determination 3): 64.9 nM; IC50 (human 11β-HSD1; [3]): 172 nM; IC50 (human 11β-HSD1; determination 1, 7 inhibitor concentrations at factor 2 intervals, read-out: IC 50 11β-HSD1, determination 1): 147 nM; IC50 (human 11β-HSD1; determination 2, 7 inhibitor concentrations at factor 2 intervals, read-out: IC 50 11β-HSD1, determination 2): 206 nM; IC50 (human 11β-HSD1; determination 3, 7 inhibitor concentrations at factor 2 intervals, read-out: IC 50 11β-HSD1, determination 3): 161 nM |
| COc1ccc(CNC(=O)C2CCC(=O)N2C2CCCC2)cc1OC (centres unmarked) [BNW26] | 136.8 % of control | 94.07 % of control | – |
| COc1cc2c(cc1OC)C(COc1ccc([N+](=O)[O-])cc1)N(C(=O)c1ccc(Cl)c([N+](=O)[O-])c1)CC2 (centres unmarked) [BNW27] | 126.4 % of control | 78.64 % of control | – |
| COc1cc(/C=N/NC(=O)CSc2nc3ccccc3n2Cc2ccc(C)cc2)cc(OC)c1OC(C)=O [BNW28] | 137 % of control | 76.73 % of control | – |
| CCN(CC)S(=O)(=O)c1ccc(OC)c(-c2nnc(-c3cc(S(=O)(=O)N(CC)CC)ccc3OC)o2)c1 [BNW29] | 115.4 % of control | 75.29 % of control | – |
| CCC(Sc1nnc(-c2ccc(OC)c(OC)c2)c(-c2ccc(OC)c(OC)c2)n1)C(=O)N(CC)CC (centres unmarked) [BNW30] | 140 % of control | 48.36 % of control | – |
| CC1(C)[C@@H](O)CC[C@]2(C)[C@H]3C(=O)C=C4[C@@H]5C[C@@](C)(C(=O)O)CC[C@]5(C)CC[C@@]4(C)[C@]3(C)CC[C@@H]12 [BX-1, 18-β-glycyrrhetinic acid] | – | – | influence on the pathology of arthritis (T-cell and dendritic cell activation, systemic inflammation, bone marrow infiltration) [1]: positively influence all arms of the pathology of arthritis |
